Measured values reported in PubChem BioAssay (NCI).
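A five-concentration, 48-hour dose response in 96-well plates underlies each endpoint, interpolated linearly between surrounding concentrations. The concentration for 50% growth inhibition is given as GI50. At the TGI there is no net growth.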

Columns and labels:
Assay in all cases: NCI-60 cell line screen, 48 h
NCI-H522 lung = system: NCI-H522 lung
NCI-H226 lung = system: NCI-H226 lung
U251 CNS = system: U251 CNS
COLO 205 colon = system: COLO 205 colon
RPMI-8226 leukemia = system: RPMI-8226 leukemia
MDA-MB-435 = system: MDA-MB-435
K-562 leukemia = system: K-562 leukemia
HCT-116 colon = system: HCT-116 colon
NCI/ADR-RES ovarian = system: NCI/ADR-RES ovarian

Row | SMILES | GI50 (NCI-H522 lung) [µM] | TGI (NCI-H522 lung) [µM] | GI50 (NCI-H226 lung) [µM] | TGI (NCI-H226 lung) [µM] | GI50 (U251 CNS) [µM] | TGI (U251 CNS) [µM] | GI50 (COLO 205 colon) [µM] | TGI (COLO 205 colon) [µM] | GI50 (RPMI-8226 leukemia) [µM] | TGI (RPMI-8226 leukemia) [µM] | GI50 (MDA-MB-435) [µM] | TGI (MDA-MB-435) [µM] | GI50 (K-562 leukemia) [µM] | TGI (K-562 leukemia) [µM] | GI50 (HCT-116 colon) [µM] | TGI (HCT-116 colon) [µM] | GI50 (NCI/ADR-RES ovarian) [µM] | TGI (NCI/ADR-RES ovarian) [µM]
1 | O=C(NC1CCN(Cc2ccccc2)CC1)c1cc(-c2ccncc2)nc2ccc(Cl)cc12 | 22.2 | 60.6 | 30.2 | > 100 | 17.1 | > 71.7 | 7.76 | 42.7 | 12.4 | > 74 | 15 | > 88.7 | 3.78 | 27.3 | 9.64 | 33.9 | 22.2 | > 100
2 | O=C(O)C/C(=C\c1ccco1)C(=O)O |  | > 100 |  | > 100 |  | > 100 |  | > 100 |  | > 100 |  | > 100 |  | > 100 |  | > 100 |  | > 100
3 | C=CC[n+]1c(/C=C/C=C2\N(C)c3ccccc3C2(C)C)sc2ccc(OC)cc21 | 0.133 | 2.6 | 0.282 | 13 | 0.293 | 14.4 | 0.188 | 0.591 | 0.0692 | 0.705 | 0.256 | 10.6 | 0.165 | 12.8 | 0.159 | 11.9 | 7.76 | 69.2
4 | FC(F)(F)c1nc(N2CCCC2)ncc1-c1nnnn1-c1ccc(Cl)cc1 | 10.2 | 59 | 13.9 | > 100 | 33 | > 100 | 10.7 | 27.5 | 1.41 | 12.8 | 15.2 | 40.8 | 3 | 22.6 | 23 | 54.6 | 23 | 62.2
5 | F | 4970 | > 6870 | > 6870 | > 6870 | 2870 | > 6870 | 2830 | > 6870 | 3060 | > 6870 | 2080 | 5500 | 3630 | > 6870 | 2820 | > 6870 | 2530 | > 6870
6 | CC(=O)N[C@@H](Cc1ccc(OP(=O)(O)O)cc1)C(=O)N[C@H]1CCC(=O)N2CCC[C@@H](C(=O)NCc3ccc(Cl)cc3)N2C1=O | > 25 | > 25 | > 25 | > 25 | > 25 | > 25 | > 25 | > 25 | > 25 | > 25 | > 25 | > 25 | > 25 | > 25 | > 25 | > 25 | > 25 | > 25
7 | N#Cc1c(-c2ccccc2)nc(SCC2CO2)nc1N1CCOCC1 (centres undefined) | 27.5 | > 100 | 11.5 | > 100 | 19.2 | > 100 | 11.3 | 67.6 | 9.41 | 72.9 | 9.56 | > 100 | > 47.2 | > 100 | 20.5 | > 100 | 11.3 | > 95.5
8 | COc1ccc2[nH]c(=O)c3c4ccccc4cn3c2c1 | 0.576 | 2.44 | 3.47 | 18 | 0.388 | 1.55 | 0.373 | 1.36 | 0.358 | 2.03 | 0.154 | 0.411 | 0.276 | 1.33 | 0.351 | 1.38 | 0.308 | 1.29
9 | Cc1c2cc[n+](C)cc2c(C)c2c1sc1ccccc12 |  | 2.4 |  | 2.11 |  | 1.15 |  | 7.71 |  | 5.68 |  | 6.18 |  | 41.3 |  | 23.7 |  | > 100
